Tested on: Mycobacterium tuberculosis strain EH4.0 expressing green-fluorescent protein (GFP)
Assay: microbe, parasite or virus in culture
Type: cell-based
Conditions: 168 h, read-out: pIC50 (converted)

| Compound | IC50 [nM] |
| --- | --- |
| CCc1nc2nc(C)c(F)cn2c1C(=O)NCc1ccc(N2CCN(S(=O)(=O)C(F)(F)F)C=N2)c(F)c1 [Compound 177] | 7.94 |
| CCc1nc2cc(C)c(Cl)cn2c1C(=O)NCc1ccc(N2CCN(S(=O)(=O)C(F)(F)F)C(OC)=N2)cc1 [Compound 108] | 20.4 |
| CCc1nc2ccc(Cl)cn2c1C(=O)NCc1ccc(N2CCN(S(=O)(=O)C(F)(F)F)C(OC)=N2)c(F)c1 [Compound 37] | 3.98 |
| CCc1nc2ccc(C3CC3)cn2c1C(=O)NCc1ccc(N2CCN(S(=O)(=O)C(F)(F)F)C=N2)c(F)c1 [Compound 101] | 29.5 |
| CCc1nc2ncc(C)cn2c1C(=O)NCc1cnc(N2CCN(S(=O)(=O)C(F)(F)F)C=N2)c(F)c1 [Compound 201] | 12 |
| O=C(NCc1ccc(N2CCN(S(=O)(=O)C(F)(F)F)C=N2)c(F)c1)c1c(C(F)(F)F)nc2c(F)cccn12 [Compound 186] | 3.63 |
| CCc1nc2cccc(Cl)n2c1C(=O)NCc1ccc(N2CCN(S(=O)(=O)C(F)(F)F)C(OC)=N2)cc1 [Compound 70] | ≥ 501 |
| CCc1nc2cc(F)c(Cl)cn2c1C(=O)NCc1ccc(N2CCNC=N2)c(F)c1 [Compound 202] | 389 |
| CCc1nc2ccc(C#N)cn2c1C(=O)NCc1ccc(N2CCN(S(=O)(=O)C(F)(F)F)C(OC)=N2)cc1 [Compound 71] | 166 |
| CCc1nc2ccc(OC)cn2c1C(=O)NCc1ccc(N2CCN(S(=O)(=O)C(F)(F)F)C=N2)cc1 [Compound 42] | 6.31 |
| CCc1nc2c(Cl)cc(Cl)cn2c1C(=O)NCc1ccc(N2CCN(S(=O)(=O)C(F)(F)F)C=N2)c(F)c1 [Compound 87] | 89.1 |
| CCc1nc2ncc(F)cn2c1C(=O)NCc1ccc(N2CCN(S(=O)(=O)C(F)(F)F)C(OC)=N2)c(F)c1 [Compound 121] | 12.9 |
| CCc1nc2ccc(Cl)cn2c1C(=O)NCc1ccc(N2CCNC(OC)=N2)c(F)c1 [Compound 110] | 18.6 |
| CCc1nc2cc(NC)c(Cl)cn2c1C(=O)NCc1ccc(N2CCN(S(=O)(=O)C(F)(F)F)C=N2)c(F)c1 [Compound 80] | ≥ 501 |
| CCc1nc2ncc(OC)cn2c1C(=O)NCc1ccc(N2CCN(S(=O)(=O)C(F)(F)F)C(OC)=N2)c(F)c1 [Compound 50] | 1.07 |
| CCc1nc2ncc(Cl)cn2c1C(=O)NCc1ccc(N2CCN(S(=O)(=O)C(F)(F)F)C(OC)=N2)cc1 [Compound 27] | 2 |
| CCc1nc2cc3c(cn2c1C(=O)NCc1ccc(N2CCN(S(=O)(=O)C(F)(F)F)C=N2)c(F)c1)OCCO3 [Compound 100] | 31.6 |
| O=C(NCc1cnc(N2CCN(S(=O)(=O)C(F)(F)F)C=N2)c(F)c1)c1c(C(F)(F)F)nc2ccc(Cl)cn12 [Compound 167] | 87.1 |
| CCc1nc2nc(NC)c(Cl)cn2c1C(=O)NCc1ccc(N2CCN(S(=O)(=O)C(F)(F)F)C=N2)c(F)c1 [Compound 83] | 372 |
| CCc1nc2nc(OCc3ccccc3)c(F)cn2c1C(=O)NCc1ccc(N2CCN(S(=O)(=O)C(F)(F)F)C=N2)c(F)c1 [Compound 189] | ≥ 501 |
| CCc1nc2cc(F)c(Cl)cn2c1C(=O)NCc1ccc(N2CCN(S(=O)(=O)C(F)(F)F)C=N2)c(F)c1 [Compound 157] | 1.38 |
| CCc1nc2cc(C)c(Cl)cn2c1C(=O)NCc1ccc(N2CCN(S(=O)(=O)C(F)(F)F)C(OC)=N2)c(F)c1 [Compound 132] | 8.32 |
| CCOc1ccc2nc(CC)c(C(=O)NCc3ccc(N4CCN(S(=O)(=O)C(F)(F)F)C=N4)cc3)n2c1 [Compound 43] | 10 |

| Compound | IC50 [nM] |
| --- | --- |
| CCc1nc2ccc(C)cn2c1C(=O)NCc1ccc(N2CCN(S(=O)(=O)C(F)(F)F)C=N2)c(F)c1 [Compound 164] | 0.245 |
| CCc1nc2ccc(Cl)cn2c1C(=O)NCc1ccc(N2CCN(c3nccs3)C=N2)cc1 [Compound 76] | 13.5 |
| CCc1nc2ccc(OC)cn2c1C(=O)NCc1ccc(N2CCN(S(=O)(=O)C(F)(F)F)C(OC)=N2)c(F)c1 [Compound 48] | 1.58 |
| O=C(NCc1ccc(N2CCN(S(=O)(=O)C(F)(F)F)C=N2)cc1)c1c(C(F)F)nc2n1CCCC2 [Compound 104] | 28.2 |
| CCc1nc2cc(OC)c(C)cn2c1C(=O)NCc1ccc(N2CCN(S(=O)(=O)C(F)(F)F)C=N2)c(F)c1 [Compound 106] | 25.7 |
| COC1=NN(c2ccc(CNC(=O)c3c(C(F)(F)F)nc4ccc(Cl)cn34)cc2F)CCN1S(=O)(=O)C(F)(F)F [Compound 117] | 14.8 |
| CCc1nc2nc3c(cn2c1C(=O)NCc1ccc(N2CCN(S(=O)(=O)C(F)(F)F)C(C)=N2)cc1)CCOC3 [Compound 217] | 14.1 |
| COC1=NN(c2ccc(CNC(=O)c3c(C(F)(F)F)nc4ccccn34)cc2)CCN1S(=O)(=O)C(F)(F)F [Compound 150] | 2.95 |
| CCc1nc2nc3c(cn2c1C(=O)NCc1ccc(N2CCN(S(=O)(=O)C(F)(F)F)C(OC)=N2)c(F)c1)CCC3 [Compound 158] | 1.38 |
| O=C(NCc1ccc(N2CCN(S(=O)(=O)C(F)(F)F)C=N2)c(F)c1)c1c(Br)nc2n1CCC2 [Compound 99] | 32.4 |
| CCc1nc2ccc(Cl)cn2c1C(=O)NCc1ccc(N2CCN(S(=O)(=O)C(F)(F)F)C(CCOC)=N2)cc1 [Compound 55] | 25.7 |
| CCc1nc2c(Cl)c(OC)ccn2c1C(=O)NCc1ccc(N2CCN(S(=O)(=O)C(F)(F)F)C=N2)cc1 [Compound 39] | 79.4 |
| CCc1nc2ccc(Cl)cn2c1C(=O)NCc1ccc(N2CCN(S(=O)(=O)C(F)(F)F)C(C)=N2)c(F)c1 [Compound 213] | 3.47 |
| CCc1nc2c(C)cc(C)cn2c1C(=O)NCc1cnc(N2CCN(S(=O)(=O)C(F)(F)F)C=N2)c(F)c1 [Compound 183] | 200 |
| CCc1nc2ccc(Cl)cn2c1C(=O)NCc1ccc(N2CCN(c3cccs3)C(OC)=N2)cc1 [Compound 120] | 12.9 |
| CCc1nc2nc3c(cn2c1C(=O)NCc1ccc(N2CCN(S(=O)(=O)C(F)(F)F)C=N2)c(F)c1)CCCC3 [Compound 119] | 13.5 |
| CCc1nc2nc(OC)c(Cl)cn2c1C(=O)NCc1ccc(N2CCN(S(=O)(=O)C(F)(F)F)C=N2)c(F)c1 [Compound 86] | 89.1 |
| CCc1nc2cc(Br)c(C)cn2c1C(=O)NCc1ccc(N2CCN(S(=O)(=O)C(F)(F)F)C=N2)c(F)c1 [Compound 97] | 33.9 |
| CCc1nc2cc(C)c(C)cn2c1C(=O)NCc1cnc(N2CCN(S(=O)(=O)C(F)(F)F)C=N2)c(F)c1 [Compound 185] | 46.8 |
| Cc1cn2c(C(=O)NCc3ccc(N4CCN(S(=O)(=O)C(F)(F)F)C=N4)c(F)c3)c(C)nc2s1 [Compound 153] | 1.78 |
| CCc1nc2nc3c(cn2c1C(=O)NCc1ccc(N2CCN(S(=O)(=O)C(F)(F)F)C(OC)=N2)c(F)c1)CCOC3 [Compound 180] | 3.98 |
| CCc1nc2cc(OC)ccn2c1C(=O)NCc1ccc(N2CCN(S(=O)(=O)C(F)(F)F)C(OC)=N2)cc1 [Compound 52] | 41.7 |
| CCc1nc2ccc(Cl)cn2c1C(=O)NCc1ccc(N2CCN(C)C=N2)cc1 [Compound 15] | 25.1 |

| Compound | IC50 [nM] |
| --- | --- |
| COC1=NN(c2ccc(CNC(=O)c3c(C(F)(F)F)nc4n3CCCC4)cc2F)CCN1S(=O)(=O)C(F)(F)F [Compound 112] | 17.4 |
| CCc1nc2nc(N)c(F)cn2c1C(=O)NCc1ccc(N2CCN(S(=O)(=O)C(F)(F)F)C=N2)c(F)c1 [Compound 170] | 316 |
| CCc1nc2ccc(C)cn2c1C(=O)NCc1ccc(N2CCN(S(=O)(=O)C(F)(F)F)C(C)=N2)cc1 [Compound 215] | 0.912 |
| O=C(NCc1ccc(N2CCN(S(=O)(=O)C(F)(F)F)C=N2)cc1)c1c(C(F)F)nc2ccccn12 [Compound 128] | 9.12 |
| O=C(NCc1ccc(N2CCN(S(=O)(=O)C(F)(F)F)C=N2)cc1)c1c(C(F)(F)F)nc2ccccn12 [Compound 127] | 9.55 |
| O=C(NCc1ccc(N2CCN(S(=O)(=O)C(F)(F)F)C=N2)c(F)c1)c1c(C(F)F)nc2n1CCCC2 [Compound 147] | 3.8 |
| Cc1ccc2nc(C(F)(F)F)c(C(=O)NCc3ccc(N4CCN(S(=O)(=O)C(F)(F)F)C=N4)c(F)c3)n2c1 [Compound 175] | 1.58 |
| CCc1nc2cc(OC)c(Cl)cn2c1C(=O)NCc1ccc(N2CCN(S(=O)(=O)C(F)(F)F)C(OC)=N2)c(F)c1 [Compound 46] | 100 |
| CCc1nc2ccc(Cl)cn2c1C(=O)NCc1cc(F)c(N2CCN(S(=O)(=O)C(F)(F)F)C=N2)c(F)c1 [Compound 35] | 5.01 |
| CCc1nc2cc(C)c(Cl)cn2c1C(=O)NCc1ccc(N2CCN(S(=O)(=O)C(F)(F)F)C=N2)c(F)c1 [Compound 116] | 15.1 |
| O=C(NCc1cnc(N2CCN(S(=O)(=O)C(F)(F)F)C=N2)c(F)c1)c1c(C(F)(F)F)nc2c(F)cccn12 [Compound 182] | 31.6 |
| CCc1nc2ncc(F)cn2c1C(=O)NCc1ccc(N2CCN(S(=O)(=O)C(F)(F)F)C=N2)cc1 [Compound 10] | 63.1 |
| CCc1nc2cc(Cl)c(Cl)cn2c1C(=O)NCc1ccc(N2CCN(S(=O)(=O)C(F)(F)F)C=N2)c(F)c1 [Compound 118] | 13.8 |
| Cc1cc(F)c2nc(C(F)(F)F)c(C(=O)NCc3cnc(N4CCN(S(=O)(=O)C(F)(F)F)C=N4)c(F)c3)n2c1 [Compound 184] | 31.6 |
| CCc1nc2nc(C)ccn2c1C(=O)NCc1ccc(N2CCN(S(=O)(=O)C(F)(F)F)C=N2)c(F)c1 [Compound 111] | 18.2 |
| CCc1nc2nc(N3CCCC3)c(Cl)cn2c1C(=O)NCc1ccc(N2CCN(S(=O)(=O)C(F)(F)F)C=N2)c(F)c1 [Compound 82] | ≥ 501 |
| CCc1nc2nc3c(cn2c1C(=O)NCc1ccc(N2CCN(S(=O)(=O)C(F)(F)F)C=N2)c(F)c1)OCCN3C [Compound 205] | 66.1 |
| Cc1cc(F)c2ncc(C(=O)NCc3cnc(N4CCN(S(=O)(=O)C(F)(F)F)C=N4)c(F)c3)n2c1 [Compound 178] | 200 |
| CCc1nc2ccc(Cl)cn2c1C(=O)NCc1ccc(N2CCN(S(=O)(=O)C(F)(F)F)C=N2)c(C)c1 [Compound 5] | 7.94 |
| Cc1ccc2nc(C(F)(F)F)c(C(=O)NCc3cnc(N4CCN(S(=O)(=O)C(F)(F)F)C=N4)c(F)c3)n2c1 [Compound 176] | 15.8 |
| CCc1nc2nc3c(cn2c1C(=O)NCc1ccc(N2CCN(S(=O)(=O)C(F)(F)F)C=N2)c(F)c1)COCC3 [Compound 90] | 74.1 |
| CCc1nc2cc(Br)c(Cl)cn2c1C(=O)NCc1ccc(N2CCN(S(=O)(=O)C(F)(F)F)C=N2)c(F)c1 [Compound 103] | 28.2 |
